In ChEMBL document CHEMBL1139379, “Design, structure-activity relationships and in vivo characterization of 4-amino-3-benzimidazol-2-ylhydroquinolin-2-ones: a novel class of receptor tyrosine kinase inhibitors” (J Med Chem, 2009):

Legend:
[1] = molecular target: Platelet-derived growth factor receptor beta (Homo sapiens, UniProt P09619); assay: Inhibition of human recombinant PDGFRbeta
[2] = molecular target: Fibroblast growth factor receptor 1 (Homo sapiens, UniProt P11362); assay: Inhibition of human recombinant FGFR1
Sequence of Fibroblast growth factor receptor 1 (P11362 whole entry): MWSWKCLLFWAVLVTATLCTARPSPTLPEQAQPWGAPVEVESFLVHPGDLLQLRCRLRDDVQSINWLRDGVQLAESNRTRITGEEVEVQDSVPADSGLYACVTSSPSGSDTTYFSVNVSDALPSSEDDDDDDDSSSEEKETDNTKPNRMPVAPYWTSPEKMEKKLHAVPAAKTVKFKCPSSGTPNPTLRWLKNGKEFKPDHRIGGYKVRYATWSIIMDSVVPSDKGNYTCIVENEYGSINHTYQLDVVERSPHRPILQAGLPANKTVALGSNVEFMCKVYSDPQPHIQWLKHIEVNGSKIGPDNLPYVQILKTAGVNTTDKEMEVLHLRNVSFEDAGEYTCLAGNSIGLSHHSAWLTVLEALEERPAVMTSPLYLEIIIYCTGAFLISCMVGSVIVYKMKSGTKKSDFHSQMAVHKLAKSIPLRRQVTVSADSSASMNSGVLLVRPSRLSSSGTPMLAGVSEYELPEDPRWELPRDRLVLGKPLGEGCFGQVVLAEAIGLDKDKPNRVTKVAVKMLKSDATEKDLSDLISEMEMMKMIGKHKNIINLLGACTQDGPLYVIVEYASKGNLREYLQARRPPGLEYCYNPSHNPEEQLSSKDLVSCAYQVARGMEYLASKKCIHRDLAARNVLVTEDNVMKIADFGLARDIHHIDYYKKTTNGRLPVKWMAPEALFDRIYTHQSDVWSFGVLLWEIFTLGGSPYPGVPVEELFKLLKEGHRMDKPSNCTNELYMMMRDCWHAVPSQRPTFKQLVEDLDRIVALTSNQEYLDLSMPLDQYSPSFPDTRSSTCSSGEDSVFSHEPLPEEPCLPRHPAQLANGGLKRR

[3] = molecular target: Vascular endothelial growth factor receptor 2 (Homo sapiens, UniProt P35968)
Sequence of Vascular endothelial growth factor receptor 2 (P35968 whole entry): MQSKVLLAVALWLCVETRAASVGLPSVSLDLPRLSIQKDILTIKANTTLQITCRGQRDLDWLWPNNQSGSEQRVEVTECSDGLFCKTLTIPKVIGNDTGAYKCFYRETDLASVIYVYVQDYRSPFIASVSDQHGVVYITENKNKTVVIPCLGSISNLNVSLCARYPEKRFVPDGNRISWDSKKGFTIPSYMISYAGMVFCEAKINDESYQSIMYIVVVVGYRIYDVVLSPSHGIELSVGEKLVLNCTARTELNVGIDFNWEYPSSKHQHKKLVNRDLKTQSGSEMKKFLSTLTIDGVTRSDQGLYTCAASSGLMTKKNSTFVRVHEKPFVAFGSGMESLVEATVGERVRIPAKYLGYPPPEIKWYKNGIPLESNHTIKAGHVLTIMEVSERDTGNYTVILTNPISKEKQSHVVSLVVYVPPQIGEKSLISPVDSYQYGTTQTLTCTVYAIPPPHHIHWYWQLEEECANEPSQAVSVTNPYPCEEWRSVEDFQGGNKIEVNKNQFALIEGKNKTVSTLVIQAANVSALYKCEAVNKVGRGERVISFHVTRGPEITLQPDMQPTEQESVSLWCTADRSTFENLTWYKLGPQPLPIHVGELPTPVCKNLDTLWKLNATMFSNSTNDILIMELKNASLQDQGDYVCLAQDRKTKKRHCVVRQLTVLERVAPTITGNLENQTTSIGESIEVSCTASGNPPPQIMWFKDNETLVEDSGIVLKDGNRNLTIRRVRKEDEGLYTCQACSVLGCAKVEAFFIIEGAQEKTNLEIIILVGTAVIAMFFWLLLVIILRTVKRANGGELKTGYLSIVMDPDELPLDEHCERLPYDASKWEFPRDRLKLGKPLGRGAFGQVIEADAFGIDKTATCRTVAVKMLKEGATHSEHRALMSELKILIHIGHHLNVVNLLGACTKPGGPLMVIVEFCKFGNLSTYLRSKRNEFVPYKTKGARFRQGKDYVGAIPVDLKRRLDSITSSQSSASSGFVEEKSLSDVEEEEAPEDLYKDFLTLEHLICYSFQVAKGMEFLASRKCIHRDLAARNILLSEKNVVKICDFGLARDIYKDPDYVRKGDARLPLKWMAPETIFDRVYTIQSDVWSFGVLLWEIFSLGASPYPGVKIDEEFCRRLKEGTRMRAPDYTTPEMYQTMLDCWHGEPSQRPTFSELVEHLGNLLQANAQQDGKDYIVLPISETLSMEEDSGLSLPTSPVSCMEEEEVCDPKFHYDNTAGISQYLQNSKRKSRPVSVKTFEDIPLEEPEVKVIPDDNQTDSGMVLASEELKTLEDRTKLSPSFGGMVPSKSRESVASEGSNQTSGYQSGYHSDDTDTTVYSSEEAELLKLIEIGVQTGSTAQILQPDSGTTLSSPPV

[4] = Inhibition of VEGF-mediated proliferation of HMVEC after 72 hrs; type: functional, cell-based; details: Homo sapiens

Sequence of Platelet-derived growth factor receptor beta (P09619 whole entry): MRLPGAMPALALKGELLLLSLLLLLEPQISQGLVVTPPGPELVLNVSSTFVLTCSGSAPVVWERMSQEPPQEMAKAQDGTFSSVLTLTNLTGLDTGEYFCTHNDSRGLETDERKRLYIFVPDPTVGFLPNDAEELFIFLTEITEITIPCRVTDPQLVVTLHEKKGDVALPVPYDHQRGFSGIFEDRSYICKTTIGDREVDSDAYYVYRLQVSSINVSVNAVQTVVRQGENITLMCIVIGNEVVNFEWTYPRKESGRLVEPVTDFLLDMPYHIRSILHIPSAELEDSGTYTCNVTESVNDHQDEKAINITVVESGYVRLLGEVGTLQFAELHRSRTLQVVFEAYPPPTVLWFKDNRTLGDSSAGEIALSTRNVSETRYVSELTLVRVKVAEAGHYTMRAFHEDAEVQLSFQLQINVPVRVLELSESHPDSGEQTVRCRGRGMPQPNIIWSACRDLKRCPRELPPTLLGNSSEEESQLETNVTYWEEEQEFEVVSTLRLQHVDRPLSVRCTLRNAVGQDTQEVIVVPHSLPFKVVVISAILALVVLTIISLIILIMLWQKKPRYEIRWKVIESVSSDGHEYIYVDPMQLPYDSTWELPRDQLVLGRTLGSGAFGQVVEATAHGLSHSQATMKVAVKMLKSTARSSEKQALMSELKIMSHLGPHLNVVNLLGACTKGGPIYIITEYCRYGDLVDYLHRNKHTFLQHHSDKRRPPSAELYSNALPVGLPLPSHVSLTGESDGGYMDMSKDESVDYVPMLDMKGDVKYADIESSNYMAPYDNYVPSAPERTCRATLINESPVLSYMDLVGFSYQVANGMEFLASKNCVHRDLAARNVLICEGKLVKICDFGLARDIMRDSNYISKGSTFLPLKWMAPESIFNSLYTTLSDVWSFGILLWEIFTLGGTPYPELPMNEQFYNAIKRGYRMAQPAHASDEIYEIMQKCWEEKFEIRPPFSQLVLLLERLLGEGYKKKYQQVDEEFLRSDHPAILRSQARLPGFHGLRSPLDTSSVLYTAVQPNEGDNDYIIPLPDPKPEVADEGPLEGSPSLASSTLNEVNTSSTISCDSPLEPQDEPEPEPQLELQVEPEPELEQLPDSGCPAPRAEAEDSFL

IC50 [1] [nM]	IC50 [2] [nM]	IC50 [3] [nM]	Structure (SMILES)	EC50 [4] [nM]
5	30	57	Nc1c(-c2nc3cc(N4CCOCC4)ccc3[nH]2)c(=O)[nH]c2ccccc12	51
2	9	42	CN1CCN(c2ccc3[nH]c(-c4c(N)c5ccccc5[nH]c4=O)nc3c2)CC1	19
10	30	58	Nc1c(-c2nc3ccccc3[nH]2)c(=O)[nH]c2ccccc12	78
9	370	1000	CNc1ccc2c(N)c(-c3nc4ccc(N5CCN(C)CC5)cc4[nH]3)c(=O)[nH]c2c1	270
130	4100	6500	CN1CCN(c2ccc3[nH]c(=O)c(-c4nc5ccccc5[nH]4)c(N)c3c2)CC1	–
7	83	160	CN1CCN(c2ccc3[nH]c(-c4c(N)c5cc(N(C)C)ccc5[nH]c4=O)nc3c2)CC1	2000
0.3	2	14	CN1CCN(c2ccc3[nH]c(-c4c(N)c5c(Cl)cccc5[nH]c4=O)nc3c2)CC1	12
0.7	3	12	Cc1cccc2[nH]c(=O)c(-c3nc4ccc(N5CCN(C)CC5)cc4[nH]3)c(N)c12	5
70	390	860	CN(C)c1c(-c2nc3ccccc3[nH]2)c(=O)[nH]c2ccccc12	> 10000

Further lines, the compound ahead of its results:

Structure (SMILES)	IC50 [1] [nM]	IC50 [2] [nM]	IC50 [3] [nM]	EC50 [4] [nM]
O=c1[nH]c2ccccc2cc1-c1nc2ccccc2[nH]1	70	390	1700	240
O=c1[nH]c2ccccc2c(O)c1-c1nc2ccccc2[nH]1	20	90	240	420
CN1CCN(c2ccc3[nH]c(-c4c(N)c5cc(NC(=O)c6ccccc6)ccc5[nH]c4=O)nc3c2)CC1	39	900	980	–
CN1CCN(c2ccc3nc(-c4c(N)c5cc(NCc6ccccc6)ccc5[nH]c4=O)[nH]c3c2)CC1	0.6	8	21	1100
CN1CCCC(Oc2cccc3[nH]c(=O)c(-c4nc5ccccc5[nH]4)c(N)c23)C1 (stereo unspecified)	0.1	1	5	10
CN1CCN(Cc2ccc3[nH]c(-c4c(N)c5ccccc5[nH]c4=O)nc3c2)CC1	2	9	–	–
CN(C)CC(=O)N(C)c1ccc2[nH]c(-c3c(N)c4ccccc4[nH]c3=O)nc2c1	1	3	29	24
CCC1CCN(C)C(Nc2c(-c3nc4ccccc4[nH]3)c(=O)[nH]c3ccccc23)C1 (stereo unspecified)	0.2	190	170	72
CN(C)[C@H]1CCN(c2ccc3[nH]c(-c4c(N)c5ccccc5[nH]c4=O)nc3c2)C1	4	20	60	42
Cn1c(-c2c(O)c3ccccc3[nH]c2=O)nc2ccccc21	1100	7900	> 25000	> 10000
Cn1c(-c2c(O)c3ccccc3n(C)c2=O)nc2ccccc21	> 25000	> 25000	> 25000	> 10000
